Results on 8 molecules are retold here after patent US8688427B2, “Enzyme catalysts for diels-alder reactions” (University of Washington, priority 2008, dated 2014).

Series [1] concerns catalytic antibody 1E9. Particulars: with N-ethyl maleimide as second substrate; cited from earlier work.
Series [2] relates to catalytic antibody mAb 7D4. Particulars: 310K, cited from earlier work.
The subject of series [3] is catalytic antibody mAb 4D5. Particulars: 310K, cited from earlier work.
Series [4] deals with Diels-Alderase DA_20_00, computational design on Loligo vulgaris diisopropylfluorophosphatase scaffold (PDB-ID 1E1A, SEQ ID NO:2), SEQ ID NO:4. Briefly: Kinetics of Diels-Alder reaction catalysed by original design DA_20_00. Format: biochemical. The following applies: 298K, PBS, error = 95% confidence interval. As for the experimental part: (§1) The Diels-Alder reactions were performed in PBS, at 25° C., with 4% DMSO. The DMSO came from the diene, for which the stock solution (100 mM) was made in DMSO and always diluted such that the final reaction would contain 4% DMSO. After incubation of the desired amount of diene and dienophile in the presence or absence of the protein, time points were taken of the reaction (5 μL) and quenched in a solution of 80:20 acetonitrile:water with 0.1% formic acid and 1 mM Benzoic Acid (95 μL). This reaction was incubated for 5 minutes and then the precipitated protein filtered using a Millipore multiscreen solvinert filter plate (Product Number: MSRLN0450). 20 μL of the filtered quench solution was then injected and analyzed using a liquid chromatography-tandem mass spectroscopy (LC-MSMS) assay.
This active design (DA—20—00) was created from a 6-bladed beta barrel propeller scaffold (PDB-ID 1E1A; a diisopropylfluorophosphatase from Loligo vulgaris). […]
The errors represent the calculated 95% confidence interval. The parameter a describes the cooperativity of binding between the two substrates: a value greater than one indicates negative cooperativity, whereas a value lower then one indicates positive cooperativity. α could not be determined for DA—20—00. […]

The test system of series [5] is Diels-Alderase DA_20_10, variant of DA_20_00 (Loligo vulgaris diisopropylfluorophosphatase scaffold, SEQ ID NO:2) with A21T/A74I/S271A/A173C/Q149R/A272N, SEQ …. Briefly: Kinetics of Diels-Alder reaction catalysed by optimized DA_20_10. The series is classed as biochemical. The following applies: 298K. As for the experimental part: (A) Dependence of reaction velocity on diene concentration for different fixed dienophile concentrations. The diene concentration was varied from 3.0 to 0.18 mM with a fixed concentration of 100 mM (⋄), 66 mM (Δ), 44 mM (⋄), 30 mM (◯), 20 mM (◯), or 13 mM (●) dienophile (B) Dependence of reaction velocity on dienophile concentration for different fixed diene concentrations. The dienophile was varied from 100 to 13.0 mM with a fixed concentration of 3 mM (♦), 2 mM (▴), 1.3 mM (∇), 0.9 mM (Δ), 0.6 mM (⋄), 0.4 mM (□), 0.26 mM (◯), or 0.18 mM (●) […]. Reactions were carried out with 20 μM protein in PBS at 298 K.
as §1
To summarize the optimization rounds, residues contacting the transition state in DA—20—00 were mutated individually to sets of residues predicted to retain or improve transition state binding and bolster the two catalytic residues. […] Three of the mutations (FIG. 6C) likely improve the packing around the transition state (A741, A21 T) or catalytic glutamine (A173C). Two of the mutations likely improve the overall electrostatic complementarity with the bound substrates and transition state: Q149R hydrogen bonds to the carboxylate on the diene and S271A makes the dienophile environment more non polar.
The kinetics of the DA—20—10 catalyzed reaction was characterized by measuring the dependence of the reaction velocity on the concentration of both diene and dienophile. The effective molarity (kcat/kuncat) of DA—20—10 is 100 M, and the rate enhancement (kcat/(kuncat*KM_diene)) in the presence of saturating dienophile and limiting diene is 1.0×10^5. At high substrate concentrations DA—20—10 proceeds for more than 30 turnovers before the enzyme loses activity. At higher enzyme concentrations more than 80% of the diene substrate is converted to product.
The errors represent the calculated 95% confidence interval. The parameter a describes the cooperativity of binding between the two substrates: a value greater than one indicates negative cooperativity, whereas a value lower then one indicates positive cooperativity. α could not be determined for DA—20—00. Kinetic parameters for catalytic antibodies 7D4 and 4D5 were taken from (10, 17).

The nature of series [6]: Production run and effects of knocking out the catalytic residues. Format: biochemical. Particulars: for decrease of catalytic activity on mutation of a catalytic residue of DA_20_10: relative to DA_20_10. As for the experimental part: The reaction was carried out in 1 mM diene, 50 mM dienophile, 200 μM enzyme, in PBS at 298K. The proteins assayed are DA—20—10 (υ), Y121F (▴), Q195E (x), and tela scaffold (*), uncatalyzed (λ).
To determine whether the observed activity depends on the designed active site, we investigated the contributions of the designed catalytic residues in DA—20—10 to catalysis. Glutamine 195 was mutated into a glutamate (Q195E) and tyrosine 121 was mutated into a phenylalanine (Y121F). We had originally incorporated a glutamine rather than a glutamate at this position, despite the fact that the carboxylate should make a stronger hydrogen bond with the diene carbamate. This hydrogen bond should increase the energy of the diene HOMO (and thus decrease the energy gap with the dienophile LUMO), and more greatly stabilize the transition state. However, we were concerned that the substantial free energy cost of desolvating the carboxylate would considerably reduce binding affinity for the diene. […] The Y121F mutation decreases catalytic activity by 27-fold, consistent with the removal of a hydrogen bond that contributes to dienophile binding, stabilizes the dienophile LUMO, and is enhanced in the transition state.
Timepoints were taken and measured as previously described over a period of 60 hours.

Series [7] in a line: Diels-Alder activity assay with purified protein, LC-MSMS product detection. Format: biochemical. The following applies: PBS. As for the experimental part: The observed velocity for each mutant was normalized by the velocity of DA—20—00 in order to determine the effective rate enhancement conferred by each mutation. The reactions were done at 1 mM diene, and 10 mM dienophile, PBS, 298K, and 100 μM protein.
Mutations showing enhanced activity on DA—20—04 were sequenced, grown large scale, and assayed. The assay was done at 0.1 mM dieine, 3 mM dienophile, PBS, 298K, and 20 μM protein.
as §1
A total of 43 variants were assayed using the standard activity assay. The observed activities are described in Table 2. In Table 2, the Expression column provides the number of times the mutant was expressed; the Observed column reports the raw signal level out of the mass-spec for the product (the Observed column is not normalized nor background corrected); the Concentration column provides the concentration of the protein after large-scale expression. […]

Series [8] is described as follows: Plate assay of crude cell lysate, second round of active site optimization. Format: biochemical. The following applies: Mutations Recombined; single mutations on DA_20_04; Neg_Control 0, Pos_Control 1. As for the experimental part:
Since it was unreasonable to prepare the 176 enzyme variants in large scale, a plate assay was developed in which colonies directly from a Kunkel mutagenesis (8) reaction could be screened. Kunkel mutagenesis reactions were transformed directly into BL21(DE3)™ (Invitrogen) in order to generate each of the desired mutants. Four colonies from each plated reaction was picked and grown at 37° C. in 0.5 mL of LB-Kanamycin overnight. […]. This culture was grown for 2-3 hours at 37° C., after which 50 μL of 10 mM IPTG was added to each well (0.5 mM Final) in order to induce expression. The cells were then grown for 24 hours at 18° C., harvested, and stored at −20° C. until ready for assaying. To assay, crude cell lysate was prepared by resuspending the cells in 500 uL of PBS and lysing through 3 freeze/thaw cycles (15 minutes at −80° C., 40 minutes at 25° C.), followed by centrifugation at 4000 rpm for 30 minutes. […] Samples from each reaction were then quenched and product detected using a liquid chromatography-tandem mass spectroscopy.
To help remove some of this noise, samples showing WT activity were discarded if at least 2 of the other colonies picked from that Kunkel reaction did show an effect on activity (either greater or less than WT). […] The relative effect of each mutation was calculated. […]

Where a chain is given by its changes, count along the chain named. In names and notes the source's numbering stands. Where two headings read alike, the source gives them in different places.

With `O=S1(=O)C(Cl)=C(Cl)C(Cl)=C1Cl` [tetrachlorothiophene dioxide], in series [1], the catalytic proficiency was 10^7 M^−1 and the effective molarity was 10^3 M.
Usually kcat stands for the maximal rate divided by the concentration of active sites. As usually defined, the Km is the concentration of substrate that gives half-maximal velocity. Consider `C=C/C=C/NC(=O)OCc1ccc(C(=O)O)cc1` [diene, 4-carboxybenzyl trans-1,3-butadiene-1-carbamate], for which the kcat in series [2] (diene + dienophile reaction) was 5.83e-05 s⁻¹; in series [3] (diene + dienophile reaction), 5.83e-05 s⁻¹; in series [4] (diene + dienophile reaction), 2.8e-06 ± 5.6e-07 s⁻¹; in series [5] (PBS, 20 μM protein, diene + dienophile reaction, error = 95% confidence interval) it was 0.000678 ± 8.3e-05 s⁻¹. In addition, the “a (cooperativity of binding between the two substrates)” value is 1 in series [2] (diene and dienophile); 1 in series [3] (diene and dienophile); 1.7 ± 0.7 in series [5] (diene and dienophile, >1 indicates negative cooperativity). Further, the Km in series [2] (read-out: KM-diene) was 960 µM; in series [3] (read-out: KM-diene), 1600 µM; in series [4] (read-out: KM-diene) it was 3530 ± 1500 µM; in series [5] (PBS, 20 μM protein, error = 95% confidence interval, read-out: KM-diene), 980 ± 200 µM. Also, in series [5] (diene + dienophile reaction), the “effective molarity (kcat/kuncat)” value came to 100 M.
For `C=CC(=O)N(C)C` [dienophile, N,N-dimethylacrylamide], the Km was 1700 µM in series [2] (read-out: KM-dienophile); 5900 µM in series [3] (read-out: KM-dienophile); 58100 ± 14000 µM in series [5] (PBS, 20 μM protein, error = 95% confidence interval, read-out: KM-dienophile).

B1: wild-type scaffold: diisopropylfluorophosphatase from Loligo vulgaris (PDB-ID 1E1A) (protein, listed as Loligo vulgaris)
chain: MEIPVIEPLFTKVTEDIPGAEGPVFDKNGDFYIVAPEVEVNGKPAGEILRIDLKTGKKTVICKPEVNGYGGIPAGCQCDRDANQLFVADMRLGLLVVQTDGTFEEIAKKDSEGRRMQGCNDCAFDYEGNLWITAPAGEVAPADYTRSMQEKFGSIYCFTTDGQMIQVDTAFQFPNGIAVRHMNDGRPYQLIVAETPTKKLWSYDIKGPAKIENKKVWGHIPGTHEGGADGMDFDEDNNLLVANWGSSHIEVFGPDGGQPKMRIRCPFEKPSNLHFKPQTKTIFVTEHENNAVWKFEWQRNGKKQYCETLKFGIF
As for B1, the “activity (in words)” value in series [6] is listed as “did not show any measurable activity”.

B2: DA_20_00: original Diels-Alder enzyme design on diisopropylfluorophosphatase scaffold (PDB-ID 1E1A) (protein)
chain: MEIPVIEPLFTKVTEDIPGAAGPVFDKNGDFYIVAPYVEVNGKPAGEILRIDLKTGKKTVICKPEVNGYGGIPAGCQCDRDANQLFVADMRLGLLVVQTDGTFEEIAKKDSEGRRMQGCAYCAFDYEGNLWITAPAGEVAPADFTISLQEKFGSIYCFTTDGQMIQVDTAFQAPAGIAVRHMNDGRPYQLIVAEQPTKKLWSYDIKGPAKIENKKVWGHIPGTHKGGAAGMDFDEDNNLLVANWGSSHIEVFGPDGGQPKMRIRCPFEKPSALHFKPQTKTIFVTEHENNAVWKFEWQRNGKKQYCETLKFGIFGSLEHHHHHH
modifications: Enzyme catalyst for Diels-Alder reaction
As to B2, the “activity versus background reaction (in words)” value in series [7] (25° C., 4% DMSO) was “increased activity over the background reaction”.

B3: Y121F: DA_20_10 with tyrosine 121 mutated into a phenylalanine (protein)
chain: B2 chain with Y121F
Regarding B3, in series [6], the “decrease of catalytic activity on mutation of a catalytic residue of DA_20_10” value stood at 27 fold.

B4: DA_20_04: DA_20_00 triple mutant A21T, A74I, S271A (protein)
chain: B2 chain with A21T, A74I, S271A
modifications: Enzyme catalyst for Diels-Alder reaction
notes: DA_20_00 triple mutant A21T, A74I, S271A
For B4, the Effect on in series [8] was 1. Besides, in series [7] (0.1 mM diene, 3 mM dienophile, 298K, 20 μM protein), the “product formed per hour” value was 21.9 nM of product/hour. Moreover, the “rate enhancement over DA_20_00 (velocity normalized by velocity of DA_20_00)” value in series [7] (1 mM diene, 10 mM dienophile, 298K, 100 μM protein) is 20.5 fold.

B5: Q195E: DA_20_10 with glutamine 195 mutated into a glutamate (protein)
chain: B2 chain with Q195E
Take B5: the “decrease of catalytic activity on mutation of a catalytic residue of DA_20_10” value in series [6] was found to be 450 fold.
